“Also recorded” adds a separate entry of the source. Like-named read-outs stand apart in the source and are kept apart here.
Key:
[1] = combinatorial peptide-phage display library; cited from earlier work
[2] = read-out: binding constant KD, aflatoxin B1; cited from earlier work
[3] = read-out: binding constant KD, aflatoxin B2; cited from earlier work
(human) albumin = details: ochratoxin A to (human) albumin, ref [45], cited from earlier work
[4] = Water solubility of synthesized peptides; type: physicochemical
[5] = Solid phase microtitre plate binding assay with ochratoxin A-HRP; details: ochratoxin A-HRP serial dilutions, PBS pH 7.4, 1.5 h, room temperature, A 450 nm; for binding of ochratoxin A-HRP, amine-coupled peptide: amine coupling (NHS/EDC); for binding of ochratoxin A-HRP, thiol-coupled peptide: thiol coupling (SPDP)
Excerpt: Solid phase binding assay provides a platform to test the binding capacity of the designed peptides to ochratoxin A in vitro. Each peptide sequence was immobilized to the surface of a functionally modified (R2-NH) microtitre plate via either amine coupling using N-hydroxysuccinimide (NHS)/N-(3-dimethylaminopropyl)-N'-ethylcarbodiimide (EDC) coupling chemistry or thiol coupling using a heterobifunctional crosslinker (N-Succinimidyl 3-(2-pyridyldithio) propionate (SPDP)) employing the terminal cysteine residues of the peptide sequences to allow for site-directed surface attachment. Enzyme-labelled ochratoxin A-HRP was added in a concentration-dependent manner to the immobilized peptides, and the absorbance signal (blank subtracted) was compared for both peptides and immobilization techniques, as shown in Figure 3.
To test the initial binding of the peptides with ochratoxin A, the peptides were immobilized to a (NH)-functionally modified polystyrene microtitre plate via: (1) amine-coupling using a NHS/EDC linker and (2) thiol-coupling using SPDP, a hetero-bifunctional cross-linker reagent with amine and sulfhydryl groups.
Amine coupling was performed as follows: 100 mg L^−1 of each peptide solution in 10 mM carbonate buffer pH 9.6 was incubated on the NH-wells for 30 min, then 200 mM EDC and 50 mM NHS (1:1 v/v) were added and incubated for one hour. The plates were washed using PBST and blocked using 0.1 M ethanolamine for 30 min. Thiol coupling was performed via the immobilization of 1.5 mg mL^−1 SPDP in phosphate buffer (PBS) pH 7.4 incubated for 30 min at room temperature. The peptides were added at 100 mg L^−1 in a phosphate buffer pH 8.0 and incubated for another two hours at room temperature. The plates were washed using PBST and blocked for one hour using 1 g L^−1 cysteine in 1 M NaCl and 0.1 M sodium acetate, pH 4.0.
The binding of ochratoxin A-HRP conjugate in phosphate buffer pH 7.4 was performed at decreasing serial dilutions and incubated with the immobilized peptides for 1.5 h. The zero reference was determined with ochratoxin-HRP alone on 0.1 M ethanolamine blocked wells without immobilized peptide. All incubations were performed at room temperature. Detection was performed, after washing the microtiter plates using PBST, with the chromogenic HRP-substrate TMB in ready-made solution containing hydrogen peroxide. The absorbance was read after 20 min at 450 nm.

[6] = SPR (Biacore 3000) binding of ochratoxin A-BSA to immobilised peptide or antibody; details: for Kd: Biacore 3000, CM5 chip, peptide immobilised by amine coupling, ochratoxin A-BSA 0.01–100 mg L^−1, HBS-EP pH 7.4, 25 °C, 1:1 Langmuir model, estimated; for on and off rates: Biacore 3000, ochratoxin A-BSA over immobilised ligand; for on and off rates / binding affinity (in words): HBS-EP pH 7.4, 25 °C; for binding affinity (in words): Biacore 3000, ochratoxin A-BSA
Excerpt: (§1) To determine affinities for the peptide binding interaction, the peptides were immobilized on two adjacent flow cells onto a CM5 Biacore chip to a level of 251 RU (octapeptide) and 227 RU (13-mer peptide). This was in order to study the binding interaction between the peptides and ochratoxin A using a Biacore 3000. A commercial ochratoxin A-BSA conjugate was used as the analyte to obtain a significant signal response for a binding event. Initially, one saturating concentration of ochratoxin A-BSA conjugate (100 mg L^−1) was injected over each immobilized peptide ligand to confirm binding (Figure 4).
To establish the affinity of the interaction, decreasing ochratoxin A-BSA concentrations were injected onto the immobilized peptides surfaces (Figure 5).
The binding interaction analysis of the peptide receptor with ochratoxin A was carried out on a CM5 (carboxymethylated dextran) sensor chip at 25 °C. HBS-EP (0.01 M HEPES pH 7.4, 0.15 M NaCl, 3 mM EDTA, 0.005% Surfactant P20) was used as the running and dilution buffer. Peptides (100 mg L^−1 in 10 mM acetate buffer, pH 4.5) were immobilised using 0.4 M N-(3-dimethylaminopropyl)-N'-ethylcarbodiimide (EDC) and 0.1 M N-hydroxysuccinimide (NHS), applying amine coupling chemistry. In brief, a 1:1 mixture of NHS and EDC was injected as 5 μL min^−1 flow rate for 7 min, followed by injection of 75 µL peptide ligand (5 µL min^−1) for 15 min and blocking of residual binding sites with 1 M Ethanolamine, pH 8.3 (35 µL). To establish binding kinetics, various concentrations of ochratoxin A-BSA conjugate (0.01–100 mg L^−1, 60 µL in HBS-EP pH 7.4) were injected at 5 µL min^−1 over each immobilised peptide surface. BSA alone was injected as non-specific analyte control. Dissociation was monitored during 10 min without dissociating agents (flowing only running buffer). The kinetic parameters of the binding reactions were determined using BIAevaluation 3.2 software.

BSA = assay: SPR (Biacore 3000) non-specific binding control with BSA alone; details: immobilised peptide, BSA alone 100 mg L^−1
Excerpt: as §1
Immobilization methods, especially via amine coupling, can reduce the activity of the immobilized molecule and, thus, have reduced binding capacity, which can be substantially different from the theoretical binding capacity. This is a common and known problem in binding interaction analysis. […]
The binding interaction analysis of the peptide receptor with ochratoxin A was carried out on a CM5 (carboxymethylated dextran) sensor chip at 25 °C. […] Dissociation was monitored during 10 min without dissociating agents (flowing only running buffer). The kinetic parameters of the binding reactions were determined using BIAevaluation 3.2 software.

Compound | water solubility [4] | binding of ochratoxin A-HRP, amine-coupled peptide [5] | binding of ochratoxin A-HRP, thiol-coupled peptide [5] | Kd [6] [µM] | on and off rates [6] | binding affinity (in words) [6] | non-specific binding to unconjugated BSA (BSA) | further results
N'-Ser-Asn-Leu-His-Pro-Lys-C' |  |  |  |  |  |  |  | Kd [1]: ~2900 nM
Leu-Leu-Ala-Arg-NH2 |  |  |  |  |  |  |  | Kd [2]: ~8.3 µM; Kd [3]: ~3.4 µM
C[C@@H]1Cc2c(Cl)cc(C(=O)N[C@@H](Cc3ccccc3)C(=O)O)c(O)c2C(=O)O1 [ochratoxin A] |  |  |  |  |  |  |  | Kd ((human) albumin; high affinity binding sites, read-out: KD, high affinity binding site): ~19 nM; Kd ((human) albumin; weak affinity sites, read-out: KD, weak affinity site): ~1000 nM
N'-Cys-Ser-Ile-Val-Glu-Asp-Gly-Lys-C' [octapeptide] | water soluble | ochratoxin A-HRP binds | much higher binding signals | 11.8 | fast on and off rates | weak affinity interactions; also recorded: weak binding affinity | no non-specific binding | 
N'-Gly-Pro-Ala-Gly-Ile-Asp-Gly-Pro-Ala-Gly-Ile-Arg-Cys-C' [13-mer peptide] | water soluble | decreased | good binding capacity | 15.7 | fast on and off rates; also recorded: faster on and off rates | weak binding affinity | no non-specific binding | binding affinity (in words) ([6]; listed as 13-mer): weak affinity interactions

Reference: article PMC3717777 (Toxins, 2013)
